Values joined by “and” are separate entries in the source; they are usually repeats but may differ in a detail not shown here. Equal values may be shown once. Toxic doses and inconclusive results are not listed. The calls were made as follows: active = survival T/C of 150% or more; inactive = T/C below 125% in these data. Peptide text beside a SMILES is read from it. * marks the point of attachment. Cbz = O=C(OCc1ccccc1)*; OBn = c1ccc(CO*)cc1
System: P388 leukemia ip, CD2F1 mice, survival T/C
Assay: NCI In Vivo Anticancer Drug Screen. Data for tumor model P388 Leukemia (intraperitoneal) in CD2F1 (CDF1) mice
Settings: endpoint: median survival time, higher = longer survival
In short: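 Mice carrying the transplanted tumor received test compound or vehicle. Survival was recorded in each group, and the value is the treated-group measurement divided by that of the vehicle-treated control group.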

[1] = dose: 50.0 mg/kg/injection, schedule: Q01DX009 (ip), vehicle: saline with Tween-80
[2] = dose: 100.0 mg/kg/injection, schedule: Q01DX009 (ip), vehicle: saline with Tween-80
[3] = dose: 200.0 mg/kg/injection, schedule: Q01DX009 (ip), vehicle: saline with Tween-80
[4] = dose: 400.0 mg/kg/injection, schedule: Q01DX009 (ip), vehicle: saline with Tween-80

Measured: T/C

CN1C(=O)C23SSC1(C)C(=O)N2c1ccccc1C3(C)C (stereo not drawn)
inactive: dose: 12.5 mg/kg/injection, schedule: Q01DX009 (ip), vehicle: suspension in saline 95 % of control | dose: 25.0 mg/kg/injection, schedule: Q01DX009 (ip), vehicle: suspension in saline 91 % of control | dose: 50.0 mg/kg/injection, schedule: Q01DX009 (ip), vehicle: saline 95 % of control

CC1(C=O)CCCC2(C)[C@@H]1CCC13CC(CO)C(CC[C@H]12)C3 (stereo partly drawn)
inactive: dose: 1.63 mg/kg/injection, schedule: Q01DX005 (ip), vehicle: Klucel (hydroxypropylcellulose) (HPC) 86 % of control | dose: 3.25 mg/kg/injection, schedule: Q01DX005 (ip), vehicle: Klucel (hydroxypropylcellulose) (HPC) 88 % of control

Oc1c(CN2CCOCC2)cc(CN2CCOCC2)cc1CN1CCOCC1
inactive: [1] 94 % of control | [2] 103 % of control | [3] 100 % of control | [4] 100 % of control

O=C1NC(=S)NC(=O)C1=Cc1cccc2cc3ccccc3cc12
inactive: dose: 25.0 mg/kg/injection, schedule: Q01DX005 (ip), vehicle: Klucel (hydroxypropylcellulose) (HPC) 100 % of control | dose: 50.0 mg/kg/injection, schedule: Q01DX005 (ip), vehicle: Klucel (hydroxypropylcellulose) (HPC) 89 % of control | dose: 100.0 mg/kg/injection, schedule: Q01DX005 (ip), vehicle: Klucel (hydroxypropylcellulose) (HPC) 95 % of control

c1ccc2sc(SCCSc3nc4ccccc4s3)nc2c1
inactive: dose: 60.0 mg/kg/injection, schedule: Q01DX005 (ip), vehicle: Klucel (hydroxypropylcellulose) (HPC) 99 % of control | dose: 120.0 mg/kg/injection, schedule: Q01DX005 (ip), vehicle: Klucel (hydroxypropylcellulose) (HPC) 92 % of control | dose: 240.0 mg/kg/injection, schedule: Q01DX005 (ip), vehicle: Klucel (hydroxypropylcellulose) (HPC) 89 % of control

Cc1cc(=O)c2c(ccc3ccccc32)[nH]1
inactive: [2] 106 % of control | [3] 109 % of control | [4] 104 % of control

Nc1nc(-c2c[nH]c(=O)[nH]c2=O)cs1
inactive: dose: 12.5 mg/kg/injection, schedule: Q01DX009 (ip), vehicle: saline with Tween-80 107 % of control | dose: 25.0 mg/kg/injection, schedule: Q01DX009 (ip), vehicle: saline with Tween-80 107 % of control | [1] 104 % of control

COc1ccc2cc1Oc1ccc(cc1)CC1c3c(c(OC)c(OC)c(OC)c3Oc3cc4c(cc3OC)CCN(C)C4C2)CCN1C (stereo not drawn)
inactive: dose: 15.0 mg/kg/injection, schedule: Q01DX009 (ip), vehicle: saline 94 % of control | dose: 30.0 mg/kg/injection, schedule: Q01DX009 (ip), vehicle: saline 94 % of control | dose: 60.0 mg/kg/injection, schedule: Q01DX009 (ip), vehicle: saline 103 % of control

COc1ccc2c(c1)NC(O)c1cccn1C2=O (stereo not drawn)
inactive: dose: 0.1 mg/kg/injection, schedule: Q01DX005 (ip), vehicle: water 91 % of control | dose: 0.2 mg/kg/injection, schedule: Q01DX005 (ip), vehicle: water 91 % of control | dose: 0.4 mg/kg/injection, schedule: Q01DX005 (ip), vehicle: water 93 % of control | dose: 0.8 mg/kg/injection, schedule: Q01DX005 (ip), vehicle: water 96 % of control | dose: 1.6 mg/kg/injection, schedule: Q01DX005 (ip), vehicle: water 102 % of control | dose: 5.0 mg/kg/injection, schedule: Q01DX005 (ip), vehicle: distilled water + Tween-80 100 % of control | dose: 10.0 mg/kg/injection, schedule: Q01DX005 (ip), vehicle: distilled water + Tween-80 94 % of control | dose: 20.0 mg/kg/injection, schedule: Q01DX005 (ip), vehicle: distilled water + Tween-80 100 % of control | dose: 40.0 mg/kg/injection, schedule: Q01DX005 (ip), vehicle: distilled water + Tween-80 95 % of control | dose: 80.0 mg/kg/injection, schedule: Q01DX005 (ip), vehicle: distilled water + Tween-80 91 % of control

CCCCCc1cc(O)c2c(c1)OC(C)(C)c1ccc(C)cc1-2
inactive: dose: 64.0 mg/kg/injection, schedule: Q01DX009 (ip), vehicle: saline 115 % of control | dose: 128.0 mg/kg/injection, schedule: Q01DX009 (ip), vehicle: saline 97 % of control | dose: 256.0 mg/kg/injection, schedule: Q01DX009 (ip), vehicle: saline 109 % of control | dose: 512.0 mg/kg/injection, schedule: Q01DX009 (ip), vehicle: saline 106 % of control

CCOC(=O)C(C)(C)c1nc[nH]c1[N+](=O)[O-]
inactive: dose: 12.5 mg/kg/injection, schedule: Q04DX003 (ip), vehicle: saline with Tween-80 100 % of control | dose: 25.0 mg/kg/injection, schedule: Q04DX003 (ip), vehicle: saline with Tween-80 104 % of control | dose: 50.0 mg/kg/injection, schedule: Q04DX003 (ip), vehicle: saline with Tween-80 100 % of control | dose: 200.0 mg/kg/injection, schedule: Q04DX003 (ip), vehicle: saline with Tween-80 98 % of control | dose: 400.0 mg/kg/injection, schedule: Q04DX003 (ip), vehicle: saline with Tween-80 101 % of control

CCOC(=O)CN1CCC2CC1c1c([nH]c3ccccc13)C2c1cc2c(cc1OC)N(C)C1C(O)(C(=O)OC)C(OC(C)=O)C3(CC)C=CCN4CCC21C43 (stereo not drawn)
inactive: dose: 0.03 mg/kg/injection, schedule: Q04DX003 (ip), vehicle: saline with Tween-80 94 % of control | dose: 0.06 mg/kg/injection, schedule: Q01DX009 (ip), vehicle: Klucel (hydroxypropylcellulose) (HPC) 94 % of control | dose: 0.06 mg/kg/injection, schedule: Q04DX003 (ip), vehicle: saline with Tween-80 92 % of control | dose: 0.13 mg/kg/injection, schedule: Q01DX009 (ip), vehicle: Klucel (hydroxypropylcellulose) (HPC) 93 % of control | dose: 0.13 mg/kg/injection, schedule: Q04DX003 (ip), vehicle: saline with Tween-80 95 % of control | dose: 0.25 mg/kg/injection, schedule: Q04DX003 (ip), vehicle: saline with Tween-80 98 % of control | dose: 0.5 mg/kg/injection, schedule: Q04DX003 (ip), vehicle: saline with Tween-80 112 % of control | dose: 1.0 mg/kg/injection, schedule: Q01DX009 (ip), vehicle: Klucel (hydroxypropylcellulose) (HPC) 90 % of control | dose: 13.0 micrograms/kg/injection, schedule: Q01DX009 (ip), vehicle: Klucel (hydroxypropylcellulose) (HPC) 98 % of control | dose: 25.0 micrograms/kg/injection, schedule: Q01DX009 (ip), vehicle: Klucel (hydroxypropylcellulose) (HPC) 103 % of control | dose: 50.0 micrograms/kg/injection, schedule: Q01DX009 (ip), vehicle: Klucel (hydroxypropylcellulose) (HPC) 94 % of control | dose: 100.0 micrograms/kg/injection, schedule: Q01DX009 (ip), vehicle: Klucel (hydroxypropylcellulose) (HPC) 100 % of control | dose: 200.0 micrograms/kg/injection, schedule: Q01DX009 (ip), vehicle: Klucel (hydroxypropylcellulose) (HPC) 103 % of control

CC(C)C(NC(=O)C(Cc1ccccc1)NC(=O)OCc1ccccc1)C(=O)OCc1ccccc1 (stereo not drawn) (Cbz-Phe-Val-OBn; configuration not given here)
inactive: dose: 12.5 mg/kg/injection, schedule: Q01DX005 (ip), vehicle: saline with Tween-80 93 % of control | dose: 25.0 mg/kg/injection, schedule: Q01DX005 (ip), vehicle: saline with Tween-80 100 % of control | dose: 50.0 mg/kg/injection, schedule: Q01DX005 (ip), vehicle: saline with Tween-80 91 % of control and 97 % of control | dose: 200.0 mg/kg/injection, schedule: Q01DX005 (ip), vehicle: saline with Tween-80 92 % of control

COC(=O)C(C#N)=C(Cl)Cl
inactive: dose: 1.56 mg/kg/injection, schedule: Q01DX005 (ip), vehicle: Klucel (hydroxypropylcellulose) (HPC) 98 % of control | dose: 3.12 mg/kg/injection, schedule: Q01DX005 (ip), vehicle: Klucel (hydroxypropylcellulose) (HPC) 94 % of control | dose: 6.25 mg/kg/injection, schedule: Q01DX005 (ip), vehicle: Klucel (hydroxypropylcellulose) (HPC) 93 % of control

N#Cc1ccc(NN=NCCCCCl)cc1
inactive: dose: 3.12 mg/kg/injection, schedule: Q01DX005 (ip), vehicle: distilled water + Tween-80 94 % of control | dose: 6.25 mg/kg/injection, schedule: Q01DX005 (ip), vehicle: distilled water + Tween-80 88 % of control | dose: 12.5 mg/kg/injection, schedule: Q01DX005 (ip), vehicle: distilled water + Tween-80 91 % of control | dose: 25.0 mg/kg/injection, schedule: Q01DX005 (ip), vehicle: distilled water + Tween-80 94 % of control | dose: 50.0 mg/kg/injection, schedule: Q01DX005 (ip), vehicle: distilled water + Tween-80 105 % of control

CNC(=O)OCc1c(C)oc(-c2ccc(Cl)c(Cl)c2)c1COC(=O)NC
inactive: dose: 25.0 mg/kg/injection, schedule: Q01DX009 (ip), vehicle: distilled water + Tween-80 102 % of control | dose: 50.0 mg/kg/injection, schedule: Q01DX009 (ip), vehicle: distilled water + Tween-80 97 % of control | dose: 100.0 mg/kg/injection, schedule: Q01DX009 (ip), vehicle: distilled water + Tween-80 97 % of control | dose: 200.0 mg/kg/injection, schedule: Q01DX009 (ip), vehicle: distilled water + Tween-80 91 % of control | dose: 400.0 mg/kg/injection, schedule: Q01DX009 (ip), vehicle: distilled water + Tween-80 90 % of control

From PubChem BioAssay AID330 (DTP/NCI, 2004)
